Experimental data reported in patent US5493008A, “Two non-contiguous regions contribute to nidogen binding to a single EGF-like motif of the laminin γ1 chain” (The University Of Virginia Patent Foundation, priority 1994, dated 1996).
Like-named read-outs stand apart in the source and are kept apart here. Where a SMILES comes first, the peptide text is derived from it. Where no end group is shown, it is not given here.

Molecular target: T1, nidogen (Mus musculus, UniProt P10493)
T1 sequence (P10493 29-1245): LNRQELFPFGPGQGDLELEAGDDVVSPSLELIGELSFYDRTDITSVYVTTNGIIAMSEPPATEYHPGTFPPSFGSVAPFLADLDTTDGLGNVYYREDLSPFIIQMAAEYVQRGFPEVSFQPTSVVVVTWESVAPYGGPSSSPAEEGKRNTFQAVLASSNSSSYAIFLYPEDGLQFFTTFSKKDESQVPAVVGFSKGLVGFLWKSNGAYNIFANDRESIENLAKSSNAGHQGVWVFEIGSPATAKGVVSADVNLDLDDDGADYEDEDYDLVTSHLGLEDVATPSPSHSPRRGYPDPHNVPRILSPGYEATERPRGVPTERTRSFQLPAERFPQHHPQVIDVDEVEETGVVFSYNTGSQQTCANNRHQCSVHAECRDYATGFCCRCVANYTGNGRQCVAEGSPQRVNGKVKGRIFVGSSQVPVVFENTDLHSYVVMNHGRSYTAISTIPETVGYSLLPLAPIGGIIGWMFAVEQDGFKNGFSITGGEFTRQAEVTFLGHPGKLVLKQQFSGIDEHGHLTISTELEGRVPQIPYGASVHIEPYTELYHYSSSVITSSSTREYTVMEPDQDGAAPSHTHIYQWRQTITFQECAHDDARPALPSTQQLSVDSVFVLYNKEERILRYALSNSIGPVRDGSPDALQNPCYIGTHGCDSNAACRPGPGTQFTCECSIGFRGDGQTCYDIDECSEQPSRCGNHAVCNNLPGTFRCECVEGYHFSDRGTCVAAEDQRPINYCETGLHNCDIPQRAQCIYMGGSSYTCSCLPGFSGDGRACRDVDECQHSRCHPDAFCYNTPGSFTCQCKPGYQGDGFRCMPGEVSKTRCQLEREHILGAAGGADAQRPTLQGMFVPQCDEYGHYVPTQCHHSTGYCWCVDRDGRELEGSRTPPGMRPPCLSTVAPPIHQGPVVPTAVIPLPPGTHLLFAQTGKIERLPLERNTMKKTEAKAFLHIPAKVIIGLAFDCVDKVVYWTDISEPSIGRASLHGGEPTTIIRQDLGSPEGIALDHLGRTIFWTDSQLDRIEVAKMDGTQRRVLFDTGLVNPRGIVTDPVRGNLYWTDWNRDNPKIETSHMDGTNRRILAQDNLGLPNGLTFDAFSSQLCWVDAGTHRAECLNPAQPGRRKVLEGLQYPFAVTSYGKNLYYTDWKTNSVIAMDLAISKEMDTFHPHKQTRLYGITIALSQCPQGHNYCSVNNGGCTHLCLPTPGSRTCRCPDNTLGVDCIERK
Assay: Radioligand competition assay: inhibition of 125I-laminin fragment P1 binding to nidogen
Details: for inhibitory activity in words: laminin-nidogen binding competition
Experimental: A radioligand competition assay was used for measurement of relative binding affinities (Mann K. et al. (1988), Eur. J. Biochem., 178, 71-80; Fox, J. W. et al. (1991), EMBO J., 10, 3137-3146). A fixed concentration of recombinant nidogen (0.2 nM) was incubated overnight at 4° C. with inhibitors at varying concentrations, followed by the addition of ^125 I-labeled laminin fragment P1 (0.01 nM; 10,000-20,000 c.p.m.) for the same incubation period. Bound and non-bound fragment P1 was then separated by antibodies against nidogen. Competitor concentrations causing 50% inhibition (IC50) were determined from dose-response profiles. […] IC50 values compared from different assays were normalized to a single fragment P1 value.

[1] = Table II, synthetic loops of EGF-like repeat 4 and smaller synthetic and proteolytic fragments, read-out: IC50 (inhibitory capacity)
[2] = Table IV, recombinant mutants and chimeric structures of γ1III4, read-out: IC50 (inhibitory activity for laminin-nidogen binding)
[3] = Table III, amino acid replacements in heptapeptide NIDPNAV, read-out: IC50 (inhibitory capability for laminin-nidogen binding)

Compound	IC50 [1] [nM]	IC50 (read-out: IC50) [nM]	IC50 [2] [nM]	other results
NIDPNAV [NIDPNAV]	800	800		
γ1III4D800,N: recombinant γ1III4 with Asp800 mutated to Asn			1000	
γ1III4ab3cd: recombinant chimera: loop a,b of repeat 4 with loop c,d of repeat 3 (PCQCNDNIDPNAVGNCNRLTGECLKCPTGTAGKRCELCDDGYFGDPLGSNGPVRLCR)		80	80	further decrease in activity (loop c replaced by loop c of a non-binding repeat, relative to the Tyr819 modification): 30 fold; higher inhibitory activity compared with loop a,b (relative to synthetic loop a,b peptide): 3 fold
γ1III4Y825-A: recombinant γ1III4 with Tyr825 mutated to Ala			0.06	inhibitory activity in words: without significant effect on inhibitory activity
γ1III4Y819/825-A: recombinant γ1III4 with Tyr819 and Tyr825 mutated to Ala			1.5	decrease in activity after reduction and alkylation (reduced and alkylated under denaturing conditions versus disulfide-bonded form): ~ 300 fold
CC(C)C[C@H](NC(=O)[C@H](CS)NC(=O)[C@H](CCC(=O)O)NC(=O)CNC(=O)[C@@H](NC(=O)[C@H](CC(C)C)NC(=O)[C@H](CCCNC(=N)N)NC(=O)[C@H](CC(N)=O)NC(=O)[C@H](CS)NC(=O)[C@H](CC(N)=O)NC(=O)CNC(=O)[C@@H](NC(=O)[C@H](C)NC(=O)[C@H](CC(N)=O)NC(=O)[C@@H]1CCCN1C(=O)[C@@H](N)CC(=O)O)C(C)C)[C@@H](C)O)C(=O)O [E2, DPNAVGNCNRLTGECL] (H-DPNAVGNCNRLTGECL-OH; C-terminus assumed)	3000			
NC(=O)CC[C@H](NC(=O)[C@H](CS)NC(=O)[C@@H]1CCCN1)C(=O)N[C@@H](CS)C(=O)N[C@@H](CC(N)=O)C(=O)O [E3, PCQCN] (H-PCQCN-OH; N-terminus assumed)	> 96000			inhibitory activity in words: inactive
CC[C@H](C)[C@@H]1NC(=O)[C@@H](NC(=O)[C@@H](N)CCCCN)CSSC[C@@H](C(=O)N[C@@H](CC(=O)O)C(=O)O)NC(=O)[C@H](Cc2ccc(O)cc2)NC(=O)[C@H](Cc2ccccc2)NC(=O)CNC(=O)[C@H](C)NC(=O)[C@H]([C@@H](C)O)NC(=O)[C@H](CC(N)=O)NC(=O)[C@H](Cc2ccc(O)cc2)NC1=O [loop c, oxidized] (HELM PEPTIDE1{K.C.I.Y.N.T.A.G.F.Y.C.D}$PEPTIDE1,PEPTIDE1,2:R3-11:R3$$$V2.0)	> 200000	90000 to 200000		
CC[C@H](C)[C@H](NC(=O)[C@H](CC(N)=O)NC(=O)[C@H](CC(=O)O)NC(=O)[C@H](CC(N)=O)NC(=O)[C@H](CS)NC(=O)[C@H](CCC(N)=O)NC(=O)[C@H](CS)NC(=O)[C@@H]1CCCN1)C(=O)N[C@@H](CC(=O)O)C(=O)N1CCC[C@H]1C(=O)N[C@@H](CC(N)=O)C(=O)N[C@@H](C)C(=O)N[C@H](C(=O)NCC(=O)N[C@@H](CC(N)=O)C(=O)N[C@@H](CS)C(=O)N[C@@H](CC(N)=O)C(=O)N[C@@H](CCCNC(=N)N)C(=O)O)C(C)C [T1, PCQCNDNTDPNAVGNCNR]				inhibitory activity in words: undiminished activity
γ1III4Y819/825-A, reduced: γ1III4Y819/825-A reduced and alkylated under denaturing conditions			430	
γ1III3ab4cd: recombinant chimera: loop a,b of repeat 3 with loop c,d of repeat 4 (PCPCPGGSSCAIVPKTKEVVCTHCIYNTAGFYCDRCKEGFFGNPLAPNPADKCK)			1100	
NVDPSAV [NVDPSAV]				IC50 [3]: > 180000 nM
NVDPSAS [NVDPSAS]				IC50 [3]: > 290000 nM
CC[C@H](C)[C@H](NC(=O)[C@H](CC(N)=O)NC(=O)[C@H](CC(=O)O)NC(=O)[C@H](CC(N)=O)NC(=O)[C@H](CS)NC(=O)[C@H](CCC(N)=O)NC(=O)[C@H](CS)NC(=O)[C@@H]1CCCN1)C(=O)N[C@@H](CC(=O)O)C(=O)N1CCC[C@H]1C(=O)N[C@@H](CC(N)=O)C(=O)N[C@@H](C)C(=O)N[C@H](C(=O)NCC(=O)N[C@@H](CC(N)=O)C(=O)N[C@@H](CS)C(=O)N[C@@H](CC(N)=O)C(=O)N[C@@H](CCCNC(=N)N)C(=O)N[C@@H](CC(C)C)C(=O)N[C@H](C(=O)NCC(=O)N[C@@H](CCC(=O)O)C(=O)N[C@@H](CS)C(=O)N[C@@H](CC(C)C)C(=O)O)[C@@H](C)O)C(C)C [loop a,b, non-oxidized] (H-PCQCNDNIDPNAVGNCNRLTGECL-OH; N-terminus and C-terminus assumed)				IC50 higher / less active than fragment P1 (relative to laminin fragment P1): 5,000 fold
γ1III4: recombinant nidogen binding EGF-like repeat 4 of laminin γ1 chain domain III, 56 residues [reference compound]		0.05	0.05	
CC(C)C[C@@H]1NC(=O)[C@@H]2CCCN2C(=O)[C@H](CC(N)=O)NC(=O)CNC(=O)[C@H](Cc2ccccc2)NC(=O)[C@H](Cc2ccccc2)NC(=O)CNC(=O)[C@H](CCC(=O)O)NC(=O)[C@H](CCCCN)NC(=O)[C@@H](NC(=O)[C@@H](N)CCCNC(=N)N)CSSC[C@@H](C(=O)N[C@@H](CCCCN)C(=O)O)NC(=O)[C@H](CCCCN)NC(=O)[C@H](CC(=O)O)NC(=O)[C@H](C)NC(=O)[C@@H]2CCCN2C(=O)[C@H](CC(N)=O)NC(=O)[C@@H]2CCCN2C(=O)[C@H](C)NC1=O [loop d, oxidized] (HELM PEPTIDE1{R.C.K.E.G.F.F.G.N.P.L.A.P.N.P.A.D.K.C.K}$PEPTIDE1,PEPTIDE1,2:R3-19:R3$$$V2.0; N-terminus and C-terminus assumed)	> 90000	90000 to 200000		inhibitory activity in words: No inhibitory activity
NIDPNA [NIDPNA]	> 460000			
NIDPNAVGN [NIDPNAVGN]	600	600		
AVGNCNR [Th1, AVGNCNR]	> 30000			inhibitory activity in words: inactive
CC[C@H](C)[C@@H]1NC(=O)[C@H](CC(N)=O)NC(=O)[C@H](CC(=O)O)NC(=O)[C@H](CC(N)=O)NC(=O)[C@@H]2CSSC[C@@H](C(=O)N[C@@H](CC(C)C)C(=O)O)NC(=O)[C@H](CCC(=O)O)NC(=O)CNC(=O)[C@H]([C@@H](C)O)NC(=O)[C@H](CC(C)C)NC(=O)[C@H](CCCNC(=N)N)NC(=O)[C@H](CC(N)=O)NC(=O)[C@H](CSSC[C@H](NC(=O)[C@@H]3CCCN3)C(=O)N[C@@H](CCC(N)=O)C(=O)N2)NC(=O)[C@H](CC(N)=O)NC(=O)CNC(=O)[C@H](C(C)C)NC(=O)[C@H](C)NC(=O)[C@H](CC(N)=O)NC(=O)[C@@H]2CCCN2C(=O)[C@H](CC(=O)O)NC1=O [loop a,b, oxidized] (HELM PEPTIDE1{P.C.Q.C.N.D.N.I.D.P.N.A.V.G.N.C.N.R.L.T.G.E.C.L}$PEPTIDE1,PEPTIDE1,2:R3-16:R3|PEPTIDE1,PEPTIDE1,4:R3-23:R3$$$V2.0)		400		
NVDPNAS [NVDPNAS]				IC50 [3]: > 160000 nM
IDPNAVGN [IOPNAVGN]	1600			
LTGECL [T2, LTGECL]	12000			
